The values below come from patent US20050155093A1, “Rabbit nuclear cloning method and uses thereof” (Institute National de Ia Recherche Agronomique, priority 2002, published 2005).

Several values for one entry are separate records, joined by “and”; a condition that tells them apart may be missing. Equal values may be shown once.

The subject of this test is rabbit MII oocytes. Kind of test: In vitro development after parthenogenic activation of rabbit oocytes (electrical activation, then incubation in M199 with drug). Type of test: cell-based. As to the method: Metaphase II (MII) oocytes are collected from superovulated “New Zealand” rabbits by injections of FSH hormones followed by an injection of HCG hormone, mated with a vasectomized male 16 hours after injection of human choriogonadotrophin (hCG). The oocytes are then incubated in 0.5% hyaluronidase for 15 min (Sigma) in order to remove the cumulus cells by gentle pipeting. For the nuclear transfer, the oocytes are enucleated as previously described (Adenot et al., 1997). Simultaneously, cumulus cells are collected either from rabbits of “New Zealand” breed or from F1 rabbits obtained by a cross between rabbits of “New Zealand” breed crossed with rabbits of “Fauves de Bourgogne” breed or “New Zealand” transgenic F1 female rabbits containing a DNA construct with a sequence encoding the enhanced green fluorescence protein (eGFP) placed under the control of an EF1 (“elongation factor 1”) promoter or of an HMG promoter. The eGFP fluorescence and the PCR amplification reactions are used as markers for the cumulus donor cells. The cumulus cells are then stored at 38° C. in PBS without calcium or magnesium supplemented with 1% PVP 40 000 (polyvinylpyrrolidone (PVP)) which are then used as nucleus donor cells.
To reconstruct the embryos by nuclear transfer (NT), individual cumulus cells are inserted by micromanipulation into the zona pellucida of the enucleated oocytes. The embryos obtained by nuclear transfer (NT embryos) and the MII oocytes are activated in the following manner: 2 phases of electrical stimulations are applied 1 hour apart with a Grass stimulator (3 pulses of continuous current of 3.2 kV×cm^−1 for 20 μs each in 0.3 M mannitol containing 0.1 mM of Ca^2+ and of Mg^2+), the first phase inducing the fusion of the oocyte and of the cumulus cell. The reconstituted embryos are maintained for one hour in a culture medium at 38° C. […] After extensive washing to remove the drugs, the cells are again placed in culture in a microdrop of 50 μl of B2 medium supplemented with 2.5% fetal calf serum (FCS) in mineral oil (Sigma M8410) at 38° C. under an atmosphere saturated with 5% CO2. This activation protocol is applied to the NT embryos about 18 to 20 hours after mating of the donors.
The microtubular organization and the chromatin in the NT embryos at the 1 cell stage are observed as previously described (Adenot et al., 1997), except that the fixing state lasts for 20 min at 37° C. and that the mounting medium is Vectashield (Vector Laboratories). The rates of cleavage of the NT embryos and of the parthenotes are evaluated from 21 hours to 23 hours after electrostimulation. The rates of development up to the blastocyst stage are estimated after an in vitro culture of 3 to 4 days. For the evaluation of the number of cells, the embryos are fixed as previously described, and then stained with Hoechst […] at 1 μg/ml and then mounted on slides with wells in Vectashield and analyzed by epifluorescence. The controls are blastocysts which either developed in vitro from a 1 cell embryo collected from a superovulated rabbit or which developed in vivo from nonsuperovulated females crossed with a male and then sacrificed 3 or 4 days later.

Setting [1] is: 30 min incubation in M199 + drug after electrical activation.
The mark [2] stands for this setting: 1 h incubation in M199 + drug after electrical activation.
Setting [3] is: 1 h incubation in M199 + drug after electrical activation, cleavage at 2 cell stage.
Setting [4] is: 4 h incubation in M199 + drug after electrical activation.

On to `CN(C)c1ncnc2nc[nH]c12` [6-DMAP, 6-dimethylaminopurine], for which, under setting [1], the Number of blastocysts is reported as 32, the “Number of cleaved oocytes” value was determined as 43, the “blastocysts (%)” value stood at 66.7% and the “cleaved oocytes (%)” value was 89.6%. Besides, under setting [2], the Number of blastocysts is 38 and 35; the “Number of cleaved oocytes” value was 46 and 47; the “blastocysts (%)” value was determined as 72.9%. In addition, the “cleaved oocytes (%)” value under setting [3] is 96% and 95.8% and 97.9%.
`C[C@@H]1C[C@@H]([C@H](O)CC2CC(=O)NC(=O)C2)C(=O)[C@@H](C)C1` [CHX, cycloheximide]: under setting [1], the Number of blastocysts came out at 19, the “Number of cleaved oocytes” value is given as 41, the “blastocysts (%)” value is 39.6% and the “cleaved oocytes (%)” value amounted to 85.4%. In addition, under setting [2], the Number of blastocysts was 24, the “Number of cleaved oocytes” value was 45 and the “blastocysts (%)” value turned out to be 50%. Also, the “cleaved oocytes (%)” value under setting [3] was 94% and 93.7%. Further, under setting [4], the Number of blastocysts was 25, the “Number of cleaved oocytes” value came out at 47, the “blastocysts (%)” value is reported as 52.1% and the “cleaved oocytes (%)” value is given as 97.9%.
